Experimental data as given in US20130022612A1, “METHODS AND COMPOSITIONS FOR MALARIA PROPHYLAXIS” (priority 2004, published 2013).

Key:
[1] = test system: CSP processing in P. berghei sporozoites; assay: Pulse-chase metabolic labeling of CSP processing, P. berghei sporozoites; assay type: cell-based, Plasmodium berghei
Description: P. berghei sporozoites were incubated in Dulbecco's Modified Eagle Medium (DMEM; Invitrogen, Carlsbad, Calif.) without cysteine (Cys) and methionine (Met), containing 1% BSA and […] L-[35 S]-Cys/Met (Pro-Mix, Amersham Pharmacia) in a total volume of 200 μl for one hour at 28° C. They were then washed and resuspended in DMEM/BSA containing unlabeled Cys/Met at 28° C. for the indicated time in the presence or absence of the indicated protease inhibitor. Sporozoites were then lysed and CSP was immunoprecipitated and analyzed by autoradiography as outlined below.
When sporozoites were incubated with specific inhibitors, their concentrations were as follows: 10 […] E-64; 1 mM phenylmethylsulfonyl fluoride (PMSF); 0.3 mM aprotinin; 100 mM 3,4 DCl; 75 mM leupeptin; 100 mM TLCK; 1 mM pepstatin; 1 mM 1,10 phenanthroline; 5 mM EDTA; 0.5% sodium azide. To check for toxicity by propidium iodide (PI) staining, P. berghei sporozoites were incubated in the presence or absence of the various protease inhibitors for two hours at 28° C., PI was then added to a final concentration of […] for five minutes at 28° C. The sporozoites were washed and viewed under a fluorescent microscope.
Metabolically-labeled sporozoites were lysed in lysis buffer (1% Triton X-100, 50 mM Tris-HCl pH 8.0) with 150 mM NaCl containing a protease inhibitor cocktail (Complete Mini-Tablets, Roche) for one hour at 4° C. The lysates were incubated with mAb 3D11 conjugated to agarose overnight at 4° C. with agitation, and the beads were then washed sequentially with lysis buffer containing 150 mM NaCl, high salt buffer (500 mM NaCl in lysis buffer), lysis buffer without added NaCl, and pre-elution buffer (0.5% Triton X-100, 10 mM Tris-HCl pH 6.8). CSP was eluted with 1% SDS in 0.1 M glycine pH 1.8, neutralized with 1.5 M Tris-HCl pH 8.8, and run on a 7.5% SDS-polyacrylamide gel under nonreducing conditions.
P. berghei sporozoites were metabolically labeled as previously described (Bruna-Romero, O., et al.). Briefly, sporozoites were labeled in Dulbecco's Modified Eagle Medium containing 1% BSA (DMEM/BSA) without Cys/Met and with 400 μCi/ml L-[^35S]Cys/Met for one hour at 28° C. and chased in DMEM/BSA with Cys/Met at 28° C. in the presence of 10 μM E-64 or the indicated concentrations of allicin. Labeled sporozoites were lysed in 1% Triton X-100/150 mM NaCl/50 mM Tris-HCl pH 8.0 with protease inhibitors, and lysates were incubated with 3D11-sepharose overnight at 4° C. CSP was eluted with 1% SDS in 0.1 M glycine pH 1.8, neutralized with Tris-HCl pH 8.8, and run on a 7.5% SDS-polyacrylamide gel under nonreducing conditions. The gel was fixed, enhanced with Amplify (Amersham Pharmacia), dried and exposed to film.
P. berghei sporozoites were metabolically labeled in DMEM without Cys/Met, 1% BSA and 400 μCi/ml L-[^355]-Cys/Met for 1 hour at 28° C. and then kept on ice or chased at 28° C. for the indicated times. Details of this procedure are outlined in (Coppi et al., 2005). To investigate the kinetics of processing in the presence of hepatocytes, sporozoites were labeled as above, chased at 28° C. for 1 hour and then centrifuged (300×g) onto glass coverslips with Hepa 1-6 cells and incubated at 37° C. for 5, 15 or 30 minutes. To investigate the effect of antibodies on CSP cleavage, sporozoites were labeled as above and then chased for 2 hours in the presence of the indicated antibody. Monoclonal antibodies were used as purified antibodies at the indicated concentrations and the IgG fraction of the NH2-terminal antiserum was used after isolation by Protein A (Vivapure maxiprepA; Sartorius, Edgewood, N.Y.). In all cases, labeled sporozoites (with or without Hepa 1-6 cells) were lysed and labeled CSP was immunoprecipitated with mAb-3D11 conjugated to sepharose or in the case of P. falciparum CSP, with mAb-2A10 conjugated to sepharose, as previously described (Coppi et al., 2005). CSP was eluted from the beads, run on an SDS-PAGE gel which was enhanced, dried and exposed to film. […]

P. berghei sporozoites = assay: Sporozoite gliding motility assay, P. berghei; assay type: cell-based, Plasmodium berghei
Description: Glass 8-chambered Lab-tek wells (Nalgene) were coated with 10 μg/ml 3D11 in PBS overnight at 25° C. and then washed three times with PBS. 2×10^4 P. berghei sporozoites were incubated with 50 μM allicin in DMEM without Cys/Met for ten minutes at 28° C., the medium removed and replaced with DMEM/3% BSA containing 50 μM or 4.2 μM allicin before sporozoites were added to the coated Lab-Tek wells. The sporozoites were incubated for one hour at 37° C., the medium was removed, and the wells were fixed with 4% paraformaldehyde, washed, blocked with PBS/1% BSA, and incubated with biotinylated 3D11 followed by Streptavidin-FITC (1:100 dilution; Amersham Pharmacia). All incubations were performed at 37° C. for one hour. Controls included untreated sporozoites and sporozoites added to wells in the presence of 1 μM cytochalasin D. For each group, gliding motility was assessed by determining the percentage of sporozoites associated with trails, and for those sporozoites with trails, counting the number of circles in each trail.

[2] = 50 μM allicin ten minutes, then diluted to 4.2 μM

CC(C)C[C@H](NC(=O)[C@H]1O[C@@H]1C(=O)O)C(=O)NCCCCN=C(N)N (relative stereo) [E-64, L-trans-epoxysuccinyl-leucylamide-[4-guanido]-butane]
effect on CSP processing ([1]; two hour chase at 28° C., 10 mM E-64, 1 mM PMSF, 0.3 mM aprotinin, 100 mM 3,4 DCl, 75 mM leupeptin, 100 mM TLCK, 1 mM pepstatin, 1 mM 1,10 phenanthroline, 5 mM EDTA): inhibited CSP processing | average number of circles per gliding sporozoite (P. berghei sporozoites; E-64 treated versus untreated sporozoites): not different | percentage of sporozoites that exhibited gliding motility (P. berghei sporozoites; P. berghei, preincubated with 10 mM E-64): no effect

C=CCS[S+]([O-])CC=C (stereo not drawn) [allicin]
CSP cleavage ([1]; 50 μM allicin for 10 minutes, then diluted to 4.2 μM for the remainder of the chase): prevented CSP cleavage to the same extent as when 50 μM allicin was present during the entire chase | CSP cleavage ([1]; 10, 25, and 50 μM allicin, two hour chase): inhibited | degree of inhibition of CSP cleavage relative to E-64 ([1]; allicin versus 10 μM E-64): comparable to that observed with E-64 | gliding motility (P. berghei sporozoites; [2]): no effect on gliding motility | percentage gliding and number of circles per trail versus controls (P. berghei sporozoites; [2]): the same | gliding motility (P. berghei sporozoites; kept in 50 μM allicin for the duration of the assay): completely inhibited
